Measurements taken from US20200017495A1, “NOVEL HETEROCYCLIC COMPOUNDS AND THEIR USE IN PREVENTING OR TREATING BACTERIAL INFECTIONS” (priority 2017, published 2020).
Like-named read-outs stand apart in the source and are kept apart here.

Columns and labels:
Test in all cases: MIC of compounds alone and combined with antibacterials, broth microdilution (CLSI)
Type in all cases: cell-based
[1] = test system: Citrobacter freundii (CFR) isolates; details: Citrobacter freundii
How it was run: (§1)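 Log-phase isolates were inoculated at a final 5.10^5 CFU/mL in cation-adjusted Mueller-Hinton broth and incubated 16-20 h at 35° C in ambient air. MIC was the lowest concentration preventing visible growth; for combinations, the antibacterial MIC was read at each compound concentration.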

[2] = test system: Escherichia coli (ECO) isolates; details: Escherichia coli
How it was run: as §1

[3] = test system: Providencia rettgeri (PRE) isolates; details: Providencia rettgeri
How it was run: as §1

[4] = test system: Enterobacter aerogenes (EAE) isolates; details: Klebsiella aerogenes
How it was run: as §1

[5] = test system: Serratia marcescens (SMA) isolates; details: Serratia marcescens
How it was run: as §1

[6] = test system: Citrobacter koseri (CKR) isolates; details: Citrobacter koseri
How it was run: as §1

Question: Which results are given for `C=CC1=C(C(=O)O)N2C(=O)[C@@H](NC(=O)/C(=N\O)c3csc(N)n3)[C@H]2SC1` [CDR, Cefdinir]?
Answer: MIC ([1]; strain CFR UFR10, genotype OXA-48): > 256 µg/mL; MIC ([1]; strain CFR UFR11, genotype TEM-1, OXA-1, OXA-48): > 256 µg/mL; MIC ([1]; strain CFR UFR83, genotype TEM-3, AmpC): > 256 µg/mL; MIC ([1]; strain CFR UFR146, genotype TEM-1, KPC-2, read-out: MIC): 256 µg/mL; MIC ([1]; strain CFR UFR248, genotype CTX-M-15): > 256 µg/mL; MIC ([1]; strain CFR UFR249, genotype TEM-1, CTX-M-15): > 256 µg/mL; MIC ([1]; strain CFR UFR250, genotype TEM-1, SHV-28, CTX-M-15): > 256 µg/mL; MIC ([1]; strain CFR UFR253, genotype TEM-1, SHV-12, OXA-48): > 256 µg/mL; MIC ([1]; strain CFR UFR254, genotype VEB-1b, OXA-48, qnrA, read-out: MIC): 256 µg/mL; MIC ([2]; strain ECO 4133, genotype TEM-30, OXA-1, read-out: MIC): 0.5 µg/mL; MIC ([2]; strain ECO 5302, genotype TEM-1, OXA-1, read-out: MIC): 1 µg/mL; MIC ([2]; strain ECO 131119, genotype TEM-1, OXA-48, read-out: MIC): 256 µg/mL; MIC ([2]; strain ECO 180070, genotype TEM-1, CTX-M-15): > 256 µg/mL; MIC ([2]; strain ECO 190314, genotype CTX-M-1): > 256 µg/mL; MIC ([2]; strain ECO 190317, genotype TEM-1, SHV-12, CTX-M-15, OXA-1): > 256 µg/mL; MIC ([2]; strain ECO 190457, genotype CTX-M-15, OXA-1): > 256 µg/mL; MIC ([2]; strain ECO 190549, genotype CTX-M-1, read-out: MIC): 256 µg/mL; MIC ([2]; strain ECO 200159, genotype TEM-1, CTX-M-14, read-out: MIC): 256 µg/mL; MIC ([2]; strain ECO 200259, genotype CTX-M-14, read-out: MIC): 256 µg/mL; MIC ([2]; strain ECO 200344, genotype CTX-M-1): > 256 µg/mL; MIC ([2]; strain ECO 260096, genotype CTX-M-132): > 256 µg/mL; MIC ([2]; strain ECO 260304, genotype CTX-M-15, read-out: MIC): 256 µg/mL; MIC ([2]; strain ECO 260508, genotype TEM-1, CTX-M-15, OXA-1): > 256 µg/mL; MIC ([2]; strain ECO RGN238, genotype OXA-1, read-out: MIC): 0.5 µg/mL; MIC ([2]; strain ECO UFR15, genotype TEM-1, OXA-48): > 256 µg/mL; MIC ([2]; strain ECO UFR16, genotype TEM-1, CTX-M-15, OXA-1, OXA-48): > 256 µg/mL; MIC ([2]; strain ECO UFR17, genotype TEM-1, CTX-M-15, CMY-2, OXA-1, OXA-181): > 256 µg/mL; MIC ([2]; strain ECO UFR18, genotype CTX-M-15, OXA-204): > 256 µg/mL; MIC ([2]; strain ECO UFR19, genotype CTX-M-15, CMY-2, OXA-1, OXA-204): > 256 µg/mL; MIC ([2]; strain ECO UFR20, genotype SHV-1, CTX-M-15, OXA-1, OXA-232): > 256 µg/mL; MIC ([2]; strain ECO UFR61O, genotype TEM-1, KPC-2): > 256 µg/mL; MIC ([2]; strain ECO UFR62, genotype TEM-1, CTX-M-9, KPC-2): > 256 µg/mL; MIC ([2]; strain ECO UFR74, genotype SHV-1, DHA-1): > 256 µg/mL; MIC ([2]; strain ECO UFR86, genotype ompC-, ompF-, read-out: MIC): 2 µg/mL; MIC ([2]; strain ECO UFR174, genotype TEM-1, KPC-2, OXA-1): > 256 µg/mL; MIC ([2]; strain ECO UFR175, genotype TEM-1, KPC-2, OXA-9): > 256 µg/mL; MIC ([2]; strain ECO UFR176, genotype KPC-3, OXA-9*): > 256 µg/mL; MIC ([2]; strain ECO UFR184, genotype CTX-M-15, CMY-4, OXA-1, OXA-204): > 256 µg/mL; MIC ([2]; strain ECO UFR185, genotype OXA-48): > 256 µg/mL; MIC ([2]; strain ECO UFR186, genotype TEM-1, CTX-M-14, OXA-48): > 256 µg/mL; MIC ([2]; strain ECO UFR187, genotype CTX-M-15, OXA-48): > 256 µg/mL; MIC ([2]; strain ECO UFR189, genotype TEM-1, CTX-M-15, OXA-48): > 256 µg/mL; MIC ([2]; strain ECO UFR190, genotype CTX-M-24, OXA-48): > 256 µg/mL; MIC ([2]; strain ECO UFR191, genotype TEM-1, CTX-M-24, OXA-48): > 256 µg/mL; MIC ([2]; strain ECO UFR207, genotype CTX-M-15): > 256 µg/mL; MIC ([2]; strain ECO UFR208, genotype SHV-12): > 256 µg/mL; MIC ([2]; strain ECO UFR209, genotype TEM-1, CTX-M-15): > 256 µg/mL; MIC ([2]; strain ECO UFR210, genotype SHV-12): > 256 µg/mL; MIC ([2]; strain ECO UFR211, genotype TEM-24, read-out: MIC): 32 µg/mL; MIC ([2]; strain ECO UFR212, genotype CMY-2): > 256 µg/mL; MIC ([2]; strain ECO UFR218, genotype TEM-1, SHV-1, CTX-M-15): > 256 µg/mL; MIC ([3]; strain PRE UFR99, genotype OXA-1, OXA-181): > 256 µg/mL; MIC ([3]; strain PRE UFR236, genotype TEM-1, OXA-48): > 256 µg/mL; MIC [4]: > 256 µg/mL; MIC ([4]; strain EAE 49469, genotype AmpC, read-out: MIC): > 128 µg/mL; MIC ([4]; strain EAE UFR202, genotype TEM-24, read-out: MIC): 256 µg/mL; MIC ([4]; strain EAE UFR213, genotype TEM-24, read-out: MIC): 256 µg/mL; MIC [5]: > 256 µg/mL; MIC ([5]; strain SMA UFR134, genotype TEM-1, BES-1, read-out: MIC): 256 µg/mL; MIC ([5]; strain SMA UFR137, genotype SME-1, read-out: MIC): 4 µg/mL; MIC ([5]; strain SMA UFR138, genotype SME-1, read-out: MIC): 8 µg/mL; MIC ([5]; strain SMA UFR139, genotype SME-2, read-out: MIC): 64 µg/mL; MIC ([5]; strain SMA UFR239, genotype ESAC, read-out: MIC): 128 µg/mL; MIC [6]: > 256 µg/mL
